Laboratory results from patent US7887599B2, “Methods of use of biodegradable injectable implants” (priority 2001, dated 2011).

Key:
[1] = cited from earlier work
human patients [2] = conditions: in comparison to the retinoids (Personelli); cited from earlier work
human patients [3] = test: Intradermal application of glycolic acid in human patients; format: in vivo; conditions: 35 human patients, intradermal application of 5 ml at 0.01%
skin [4] = test: Injection of GA alone, re-hydrating effect on the skin; format: in vivo, human
guinea pigs [5] = conditions: guinea pig, in vivo
Text: (§1) In a preliminary test, 39 guinea pigs were used to define product concentration for intradermal injections. All were adult animals and sex was not considered. They were divided in 4 different cages, each containing 9, 10, 10 and 10 animals. […] Evaluations were taken after the 3rd and 7th day.

guinea pigs [6] = test: Preliminary test of glycolic acid concentration for intradermal injections in guinea pigs
Text: as §1

skin [7] = conditions: documented; cited from earlier work

| animals showing a minimal oedema and hyperaemia (guinea pigs [5]) [%] | animals with no edema and no hyperaemia (guinea pigs [5]) [%] | ideal dose (guinea pigs [5]) [%] | tissue finding (guinea pigs [6]; 0.1 ml at 0.2%, 3rd day) | tissue finding (guinea pigs [6]; 0.1 ml at 0.2%, 7th day) | tissue finding (guinea pigs [6]; 0.1 ml at 0.3%, 3rd day) | tissue finding (guinea pigs [6]; 0.1 ml at 0.3%, 7th day) | Compound | solubility in water [1] | local toxicity (human patients [2]) | systemic effect or comedomic action (human patients [2]) | adverse reactions in tissues (hyperemia, edema or discreet ecchymosis) (human patients [3]) | re-hydrating effect of the skin (skin [4]) | tissue finding (guinea pigs [6]; 0.1 ml at 0.1%, 3rd day) | tissue finding (guinea pigs [6]; 0.1 ml at 0.1%, 7th day) | increase in skin moisture (skin [7]) [%] |
| --- | --- | --- | --- | --- | --- | --- | --- | --- | --- | --- | --- | --- | --- | --- | --- |
| – | – | – | – | – | – | – | OC[C@@H](O)[C@@H](O)[C@H](O)[C@H](O)CO [D-mannitol] | readily soluble | – | – | – | – | – | – | – |
| 40 | 60 | 0.01 | moderate hyperaemia and edema | normal tissue (regular) | evident hyperaemia edema | epydermolyse and edema | O=C(O)CO [glycolic acid] | – | low local toxicity | no systemic effect or comedomic action | no adverse reactions | remarkable re-hydrating effect | tissue necrosis | ulcer | 300 |
